Measured values: patent US12552757B2, “NRF2-activating compound” (SENJU PHARMACEUTICAL CO., LTD., priority 2019, dated 2026)

Molecular target: T1, binding between NRF2 and KEAP1 (Homo sapiens, UniProt Q14145)
T1 construct: expressed in transfected cells; host or cells: HCE-T cells; each protein was expressed separately, and the two cell lysates were mixed in the well
Test: Measurement 1 of Nrf2 activating action (binding assay): BRET assay of inhibition of the binding between NRF2 and KEAP1
Conditions: 50% binding inhibitory concentration, NanoLuc-NRF2 / KEAP1-HaloTag cell lysates
Method: Compounds 1 to 53 produced in the Examples were used as test substances.
The inhibitory activity of each compound on the binding between NRF2 and KEAP1 was measured by bioluminescence resonance energy transfer (BRET) assay. A plasmid having human NRF2 (Original Clone ID: ha01449s1) sequence fused with NanoLuc (19 kDa, Promega) at the N-terminal was transduced into HCE-T cells using FuGENE HD (Promega). 48 hours after transduction, the cell lysate was collected and used as an NRF2-expressing cell lysate. A plasmid having human KEAP1 (Original Clone ID: cs00328) sequence fused with HaloTag (33 kDa, Promega) at the C-terminal was transduced into HCE-T cells using FuGENE HD (Promega). After 24 hours, HaloTag Nano BRET 618 Ligand (Promega) was added to the medium. The cell lysate cultured for 24 hours after the addition was used as a KEAP1-expressing cell lysate.
The NRF2-expressing cell lysate and the KEAP1-expressing cell lysate were adjusted so that the luminescence and fluorescence intensities per well were constant. Tables 1 and 2 show the formulation of each reaction solution.
Each test substance at a concentration 100 times higher than the test concentration was dissolved in dimethylsulfoxide for adjustment. 49 μL of KEAP1 solution was added to a 96-well polystyrene microplate (FALCON) to which 1 μL of each test substance solution was added, followed by incubation for 15 minutes. Then, 50 μL of NRF2 solution was added to the above solution, followed by incubation for 1 hour. To measure the binding between NRF2 and KEAP1, NanoBRET Nano-Glo Substrate (Promega) diluted with Opti-Mem (Thermo Fisher Scientific) was added, followed by shaking for 30 seconds. Then, luminescence and fluorescence were measured using the GloMax Discover System (Promega). A 495-nm short pass filter and a 600-nm long pass filter were respectively used to measure donor and acceptor emission values. A value obtained by dividing the acceptor emission value by the donor emission value was regarded as BRET value. A BRET value when the compound was not added, and a BRET value when the KEAP1 solution was not added were respectively used as binding rates of 100% and 0%, and the binding rate when the compound was added was calculated. Further, using this binding rate, the 50% binding inhibitory activity concentration (IC50) was calculated from the following formula: IC50(M)=10^(LOG(A/B)×(50−C)/(D−C)+LOG(B)) • A: higher concentration out of 2 close concentrations across the inhibition rate of 50% • B: lower concentration out of 2 close concentrations across the inhibition rate of 50% • C: inhibition rate at B • D: inhibition rate at A

T1 sequence (Q14145 whole entry): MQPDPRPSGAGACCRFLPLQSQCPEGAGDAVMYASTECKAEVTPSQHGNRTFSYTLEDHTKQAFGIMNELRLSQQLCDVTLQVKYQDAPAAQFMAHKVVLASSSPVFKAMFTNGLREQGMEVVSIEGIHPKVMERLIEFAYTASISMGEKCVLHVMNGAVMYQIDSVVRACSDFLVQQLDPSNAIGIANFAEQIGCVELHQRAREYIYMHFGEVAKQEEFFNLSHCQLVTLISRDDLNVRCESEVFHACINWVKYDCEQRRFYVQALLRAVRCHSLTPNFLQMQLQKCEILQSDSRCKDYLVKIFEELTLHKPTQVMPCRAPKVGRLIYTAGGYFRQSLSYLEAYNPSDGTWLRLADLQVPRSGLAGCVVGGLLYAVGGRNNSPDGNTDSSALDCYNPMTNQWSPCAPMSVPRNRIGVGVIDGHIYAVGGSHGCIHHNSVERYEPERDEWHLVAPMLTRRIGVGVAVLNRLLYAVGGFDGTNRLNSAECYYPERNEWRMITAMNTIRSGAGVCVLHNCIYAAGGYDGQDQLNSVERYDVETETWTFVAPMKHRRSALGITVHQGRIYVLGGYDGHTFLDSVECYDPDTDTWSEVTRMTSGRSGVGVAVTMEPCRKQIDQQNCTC

In order of falling IC50:
1. CC[C@@H]1CN(Cc2cc(C(CC(=O)O)c3ccc(C(=O)N(C)C)o3)ccc2C)S(=O)(=O)c2ccccc2O1 (stereo partly drawn) [Compound 27, 3-[5-(dimethylcarbamoyl)furan-2-yl]-3-(3-{[(R)-4-ethyl-1,1-dioxide-3,4-dihydro-2H-benzo[b][1,4,5]oxathiazepin-2-yl]methyl}-4-methylphenyl)propanoic acid]  20 nM
2. CC[C@@H]1CN(Cc2cc(C(CC(=O)O)c3ccc(C(=O)N4CCCC4)o3)ccc2C)S(=O)(=O)c2ccccc2O1 (stereo partly drawn) [Compound 28, 3-(3-{[(R)-4-ethyl-1,1-dioxide-3,4-dihydro-2H-benzo[b][1,4,5]oxathiazepin-2-yl]methyl}-4-methylphenyl)-3-[5-(pyrrolidine-1-carbonyl)furan-2-yl]propanoic acid]  19 nM

System: not listed separately
Test: Measurement of metabolic stability in human liver microsomes
Assay type: in vitro ADME
Conditions: residual ratio of test compound after 30 minutes at 37° C. with human liver microsome, LC/MS/MS
Method: 1 mmol/L DMSO solutions of the compounds produced in the Examples were prepared. Each of the 1 mmol/L DMSO solutions was diluted with acetonitrile to 10 μmol/L, and then diluted with a 6.5 mmol/L Q-NADPH solution to 200 nmol/L. 50 μL of each solution was added to the reaction group and the non-reaction group. 50 μL of a 0.2 mg protein/mL human liver microsome (Mixed Gender, Pool of 50 livers; XenoTech, LLC) solution was added to the reaction group, followed by incubation at 37° C. for 30 minutes with shaking. After 400 μL of methanol was added to the non-reaction group, 50 μL of a 0.2 mg protein/mL human liver microsome solution was added to adjust the formulation. After incubation in the reaction group, 400 μL of methanol was added to stop the reaction. The samples of the reaction group and non-reaction group were allowed to stand at −20° C. for about 30 minutes, followed by centrifugation at 4° C. at 3000 rpm for about 10 minutes. The supernatant was analyzed using LC/MS/MS, and the residual ratio of the test compound was calculated from the peak area value of the test compound using the following formula. The measurement was carried out using the following devices: HPLC system: LC-20A-Series High Performance Liquid Chromatograph (Shimadzu Corporation) and mass spectrometer: API 4000 (AB Sciex Pte. Ltd.), or using equivalent devices. Residual ratio (%)=(peak area value of test compound in reaction group/peak area value of test compound in non-reaction group)×100 Results

In order of rising “Metabolic stability*” value:
1. CC[C@@H]1CN(Cc2cc(C(CC(=O)O)c3ccc(C#N)s3)ccc2C)S(=O)(=O)c2ccccc2O1 (stereo partly drawn) [Compound 19, 3-(5-cyanothiophen-2-yl)-3-(3-{[(R)-4-ethyl-1,1-dioxide-3,4-dihydro-2H-benzo[b][1,4,5]oxathiazepin-2-yl]methyl}-4-methylphenyl)propanoic acid]  23%
2. CC[C@@H]1CN(Cc2cc(C(CC(=O)O)c3sc(C(C)=O)cc3C)ccc2C)S(=O)(=O)c2ccccc2O1 (stereo partly drawn) [Compound 14, 3-(5-acetyl-3-methylthiophen-2-yl)-3-(3-{[(R)-4-ethyl-1,1-dioxide-3,4-dihydro-2H-benzo[b][1,4,5]oxathiazepin-2-yl]methyl}-4-methylphenyl)propanoic acid]  25%
3. CC[C@@H]1CN(Cc2cc(C(c3cc(F)c(C(C)=O)s3)C(C)(C)C(=O)O)ccc2C)S(=O)(=O)c2ccccc2O1 (stereo partly drawn) [Compound 11, 3-(5-acetyl-4-fluorothiophen-2-yl)-3-(3-{[(R)-4-ethyl-1,1-dioxide-3,4-dihydro-2H-benzo[b][1,4,5]oxathiazepin-2-yl]methyl}-4-methylphenyl)-2,2-dimethylpropanoic acid]  27%
4. CC[C@@H]1CN(Cc2cc(C(CC(=O)O)c3cc(C)c(C(C)=O)s3)ccc2C)S(=O)(=O)c2ccccc2O1 (stereo partly drawn) [Compound 7, 3-(5-acetyl-4-methylthiophen-2-yl)-3-(3-{[(R)-4-ethyl-1,1-dioxide-3,4-dihydro-2H-benzo[b][1,4,5]oxathiazepin-2-yl]methyl}-4-methylphenyl)propanoic acid]  30%
5. CC[C@@H]1CN(Cc2cc(C(c3ccc(C(C)=O)s3)C(C)(C)C(=O)O)ccc2C)S(=O)(=O)c2ccccc2O1 (stereo partly drawn) [Compound 6, 3-(5-acetylthiophen-2-yl)-3-(3-{[(R)-4-ethyl-1,1-dioxide-3,4-dihydro-2H-benzo[b][1,4,5]oxathiazepin-2-yl]methyl}-4-methylphenyl)-2,2-dimethylpropanoic acid]  32%
6. CC[C@@H]1CN(Cc2cc(C(CC(=O)O)c3cc(F)c(C(C)=O)s3)ccc2C)S(=O)(=O)c2ccccc2O1 (stereo partly drawn) [Compound 8, 3-(5-acetyl-4-fluorothiophen-2-yl)-3-(3-{[(R)-4-ethyl-1,1-dioxide-3,4-dihydro-2H-benzo[b][1,4,5]oxathiazepin-2-yl]methyl}-4-methylphenyl)propanoic acid]  36%
7. CC[C@@H]1CN(Cc2cc(C(CC(=O)O)c3cccs3)ccc2C)S(=O)(=O)c2ccccc2O1 (stereo partly drawn) [Compound 17, 3-(3-{[(R)-4-ethyl-1,1-dioxide-3,4-dihydro-2H-benzo[b][1,4,5]oxathiazepin-2-yl]methyl}-4-methylphenyl)-3-(thiophen-2-yl)propanoic acid]  36%
8. CC[C@@H]1CN(Cc2cc(C(c3ccc(C(C)=O)s3)C(C)(C)C(=O)O)ccc2C)S(=O)(=O)c2c(F)cccc2O1 (stereo partly drawn) [Compound 9, 3-(5-acetylthiophen-2-yl)-3-(3-{[(R)-4-ethyl-9-fluoro-1,1-dioxide-3,4-dihydro-2H-benzo[b][1,4,5]oxathiazepin-2-yl]methyl}-4-methylphenyl)-2,2-dimethylpropanoic acid]  38%
9. CC[C@@H]1CN(Cc2cc(C(CC(=O)O)c3cc(C(C)=O)cs3)ccc2C)S(=O)(=O)c2ccccc2O1 (stereo partly drawn) [Compound 10, 3-(4-acetylthiophen-2-yl)-3-(3-{[(R)-4-ethyl-1,1-dioxide-3,4-dihydro-2H-benzo[b][1,4,5]oxathiazepin-2-yl]methyl}-4-methylphenyl)propanoic acid]  39%
10. CC[C@@H]1CN(Cc2cc(C(CC(=O)O)c3csc(C(C)=O)c3)ccc2C)S(=O)(=O)c2ccccc2O1 (stereo partly drawn) [Compound 15, 3-(5-acetylthiophen-3-yl)-3-(3-{[(R)-4-ethyl-1,1-dioxide-3,4-dihydro-2H-benzo[b][1,4,5]oxathiazepin-2-yl]methyl}-4-methylphenyl)propanoic acid]  47%
11. CC[C@@H]1CN(Cc2cc(C(c3cc(F)c(C(C)=O)s3)C(C)C(=O)O)ccc2C)S(=O)(=O)c2cnccc2O1 (stereo partly drawn) [Compound 52, 3-(5-acetyl-4-fluorothiophen-2-yl)-3-(3-{[(R)-4-ethyl-1,1-dioxide-3,4-dihydro-2H-pyrido[4,3-b][1,4,5]oxathiazepin-2-yl]methyl}-4-methylphenyl)-2-methylpropanoic acid]  53%
12. CC[C@@H]1CN(Cc2cc(C(CC(=O)O)c3ccc(C(C)=O)s3)ccc2C)S(=O)(=O)c2ccccc2O1 (stereo partly drawn) [Compound 5, 3-(5-acetylthiophen-2-yl)-3-(3-{[(R)-4-ethyl-1,1-dioxide-3,4-dihydro-2H-benzo[b][1,4,5]oxathiazepin-2-yl]methyl}-4-methylphenyl)propanoic acid]  53%
13. CC(=O)c1ccc(C(c2ccc(C)c(CN3C[C@@H](C)Oc4ccccc4S3(=O)=O)c2)C(C)(C)C(=O)O)s1 (stereo partly drawn) [Compound 12, 3-(5-acetylthiophen-2-yl)-2,2-dimethyl-3-(4-methyl-3-{[(R)-4-methyl-1,1-dioxide-3,4-dihydro-2H-benzo[b][1,4,5]oxathiazepin-2-yl]methyl}phenyl)propanoic acid]  56%
14. CC[C@@H]1CN(Cc2cc(C(CC(=O)O)c3ccc(C(=O)N4CCCC4)o3)ccc2C)S(=O)(=O)c2ccccc2O1 (stereo partly drawn) [Compound 28, 3-(3-{[(R)-4-ethyl-1,1-dioxide-3,4-dihydro-2H-benzo[b][1,4,5]oxathiazepin-2-yl]methyl}-4-methylphenyl)-3-[5-(pyrrolidine-1-carbonyl)furan-2-yl]propanoic acid]  67%
15. CC[C@@H]1CN(Cc2cc(C(CC(=O)O)c3ccc(C(=O)NC)s3)ccc2C)S(=O)(=O)c2ccccc2O1 (stereo partly drawn) [Compound 21, 3-(3-{[(R)-4-ethyl-1,1-dioxide-3,4-dihydro-2H-benzo[b][1,4,5]oxathiazepin-2-yl]methyl}-4-methylphenyl)-3-[5-(methylcarbamoyl)thiophen-2-yl]propanoic acid]  74%
16. CC[C@@H]1CN(Cc2cc(C(CC(=O)O)c3ccc(C(N)=O)s3)ccc2C)S(=O)(=O)c2ccccc2O1 (stereo partly drawn) [Compound 23, 3-(5-carbamoylthiophen-2-yl)-3-(3-{[(R)-4-ethyl-1,1-dioxide-3,4-dihydro-2H-benzo[b][1,4,5]oxathiazepin-2-yl]methyl}-4-methylphenyl)propanoic acid]  75%
17. CC[C@@H]1CN(Cc2cc(C(CC(=O)O)c3csc(C(=O)NC)c3)ccc2C)S(=O)(=O)c2ccccc2O1 (stereo partly drawn) [Compound 22, 3-(3-{[(R)-4-ethyl-1,1-dioxide-3,4-dihydro-2H-benzo[b][1,4,5]oxathiazepin-2-yl]methyl}-4-methylphenyl)-3-[5-(methylcarbamoyl)thiophen-3-yl]propanoic acid]  77%
18. CC[C@@H]1CN(Cc2cc(C(CC(=O)O)c3ccc(C(=O)N(C)C)o3)ccc2C)S(=O)(=O)c2ccccc2O1 (stereo partly drawn) [Compound 27, 3-[5-(dimethylcarbamoyl)furan-2-yl]-3-(3-{[(R)-4-ethyl-1,1-dioxide-3,4-dihydro-2H-benzo[b][1,4,5]oxathiazepin-2-yl]methyl}-4-methylphenyl)propanoic acid]  85%
